Test results as given in PMC9325707, “Vav2 is a novel APP-interacting protein that regulates APP protein level” (Scientific Reports, 2022).
Non-standard residues stand in square brackets, D forms with d. Residues, ends and D or L forms follow the SMILES beside them. pY = N[C@@H](Cc1ccc(OP(=O)(O)O)cc1)C(=O)O

Experiments:
Vav2-SH2 domain [1] = target: T1, Vav2-SH2 domain (Homo sapiens, UniProt P52735); experiment: ITC binding of APP peptides to Vav2-SH2; conditions: 298 K, 10 mM Tris/HCl, 100 mM NaCl
T1 construct: the DNA fragment encoding the SH2 domain of Vav2 (residues 659–771) was cloned into a pET28a (+) (Novagen) plasmid; 6xHis (N, cleaved yes); made in house; host or cells: Escherichia coli BL21 (DE3)
T1 sequence (P52735 659-771): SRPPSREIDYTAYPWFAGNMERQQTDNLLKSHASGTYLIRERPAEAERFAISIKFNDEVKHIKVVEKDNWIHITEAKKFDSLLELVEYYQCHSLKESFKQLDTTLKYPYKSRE
Excerpt: For NMR and ITC experiments, the DNA fragment encoding the SH2 domain of Vav2 (residues 659–771) was cloned into a pET28a (+) (Novagen) plasmid as described previously, generating a fusion protein with an N-terminus 6 × His tag. For GST pull-down experiments, the Vav2-SH2 was subcloned into pGEX4T-1 vector. The APP expression plasmid pAPPsw and the Vav2 expression plasmid pCMV5-myc-Vav2 were constructed as previously described[55],[66]. Mutants were generated by PCR mediated site-directed mutagenesis. All the constructs were verified by DNA sequencing.
The recombinant plasmids harboring His-tagged or GST-tagged Vav2-SH2 were transformed into Escherichia coli BL21 (DE3) (Novagen) strain. Cells were grown at 37 °C up to an A600 nm of 0.8, and then were induced with 0.5 mM IPTG at 25 °C for 8 h. […] Protein concentrations were estimated with absorbance spectroscopy using the molar absorption coefficient. […]
ITC experiments were performed at 298 K on a PEAQ-ITC titration calorimeter (MicroCal, Northampton, MA). […] ITC data were analyzed with a single-site binding model using Microcal PEAQ-ITC software.

[2] = target: APP pY682 peptide (Homo sapiens) (UniProt P05067); conditions: cited from earlier work
Vav2-SH2 domain [3] = target: T1, Vav2-SH2 domain; experiment: NMR titration (2D 1H-15N HSQC) of 15N-labeled Vav2-SH2 with APP peptides; assay type: binding; conditions: 0.1 mM 15N-Vav2-SH2, 20 mM Tris/HCl, 100 mM NaCl, 3 mM DTT, 90% H2O/10% D2O, pH 7.0, 293 K, 600 MHz; protein:peptide up to 1:3 (APP-pY682) or 1:4 (APP-Y682)
Procedure: The recombinant plasmids harboring His-tagged or GST-tagged Vav2-SH2 were transformed into Escherichia coli BL21 (DE3) (Novagen) strain. Cells were grown at 37 °C up to an A600 nm of 0.8, and then were induced with 0.5 mM IPTG at 25 °C for 8 h. For the production of uniformly ^15N-labeled samples, cells were grown in minimal medium using ^15NH4CL (0.5 g/L) as the sole nitrogen source. ^15N-NH4Cl was purchased from Cambridge Isotope Laboratories, Inc. The His-tagged proteins were purified by a chelated-nickel column followed by Thrombin protease treatment to remove the tag as previous described. The GST and GST fusion proteins were purified using immobilized glutathione. All proteins were further purified on a Superdex75 gel-filtration column (GE Healthcare, Piscataway, NJ, USA). The purity of proteins was confirmed by SDS–PAGE. Protein concentrations were estimated with absorbance spectroscopy using the molar absorption coefficient. […]
The NMR sample of the apo Vav2-SH2 contained 0.1 mM of protein was dissolved in NMR buffer: 20 mM Tris/HCl with 100 mM NaCl, 3 mM DTT in 90% H2O, 10% D2O (pH 7.0). […] A series of ^1H–^15N HSQC spectra were recorded as the titrant gradually titrated into the protein solutions using the Bruker hsqcfpf3gpphwg pulse program. […] NMR data were processed with NMRPipe[67] and analyzed using Sparky3 (Goddard and Kneller, University of California, San Francisco). […]

full-length APPsw = experiment: GST pull-down of full-length APPsw from 20E2 cell lysate; assay type: binding; conditions: 20E2 cell lysate 0.2 mg, 1 mg GST fusion on glutathione-agarose, 2 h; western blot (C20)
Procedure: The recombinant plasmids harboring His-tagged or GST-tagged Vav2-SH2 were transformed into Escherichia coli BL21 (DE3) (Novagen) strain. Cells were grown at 37 °C up to an A600 nm of 0.8, and then were induced with 0.5 mM IPTG at 25 °C for 8 h. For the production of uniformly ^15N-labeled samples, cells were grown in minimal medium using ^15NH4CL (0.5 g/L) as the sole nitrogen source. ^15N-NH4Cl was purchased from Cambridge Isotope Laboratories, Inc. The His-tagged proteins were purified by a chelated-nickel column followed by Thrombin protease treatment to remove the tag as previous described. The GST and GST fusion proteins were purified using immobilized glutathione. All proteins were further purified on a Superdex75 gel-filtration column (GE Healthcare, Piscataway, NJ, USA). The purity of proteins was confirmed by SDS–PAGE. Protein concentrations were estimated with absorbance spectroscopy using the molar absorption coefficient.
One hundred microliter glutathione-agarose beads were incubated with 1 mg purified GST or indicated GST-SH2 fusions and the mutant GST-SH2^R680A for 2 h at 4 °C in GST binding buffer (20 mM Tris/HCl, pH 7.4, 150 mM NaCl and 1 mM EDTA, 0.5% TritonX-100). […] After washing 4 times with GST binding buffer, beads were boiled in SDS sample buffer, run on 12% SDS–PAGE gel and analyzed by Coomassie or immunoblotting.

Chain of APP pY682 peptide (Homo sapiens) (P05067 whole entry, looked up, the tested form may be a part): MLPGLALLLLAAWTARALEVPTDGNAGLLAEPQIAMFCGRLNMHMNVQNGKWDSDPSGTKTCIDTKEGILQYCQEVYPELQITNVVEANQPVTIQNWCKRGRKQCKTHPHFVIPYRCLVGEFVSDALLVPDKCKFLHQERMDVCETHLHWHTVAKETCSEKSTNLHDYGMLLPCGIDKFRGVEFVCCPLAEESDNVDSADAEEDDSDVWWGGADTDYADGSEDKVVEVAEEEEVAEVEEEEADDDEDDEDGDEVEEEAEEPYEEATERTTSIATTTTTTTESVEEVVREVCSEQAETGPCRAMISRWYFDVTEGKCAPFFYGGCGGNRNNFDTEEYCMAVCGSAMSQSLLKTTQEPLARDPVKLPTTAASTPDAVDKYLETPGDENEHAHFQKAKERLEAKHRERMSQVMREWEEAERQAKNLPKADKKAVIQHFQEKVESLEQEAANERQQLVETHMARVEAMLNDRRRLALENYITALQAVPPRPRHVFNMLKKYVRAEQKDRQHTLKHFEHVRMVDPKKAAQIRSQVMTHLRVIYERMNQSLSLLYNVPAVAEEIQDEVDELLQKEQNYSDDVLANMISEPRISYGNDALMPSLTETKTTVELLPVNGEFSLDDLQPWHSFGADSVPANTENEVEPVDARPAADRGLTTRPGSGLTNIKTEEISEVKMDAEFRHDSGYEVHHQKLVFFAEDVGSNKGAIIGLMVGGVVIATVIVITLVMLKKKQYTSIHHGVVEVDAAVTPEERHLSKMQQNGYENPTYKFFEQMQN

C[C@@H](O)[C@H](NC(=O)[C@@H]1CCCN1C(=O)[C@H](CC(N)=O)NC(=O)[C@H](CCC(=O)O)NC(=O)[C@H](Cc1ccc(OP(=O)(O)O)cc1)NC(=O)CNC(=O)[C@H](CC(N)=O)NC(=O)[C@@H](N)CCC(N)=O)C(=O)O [APP-pY682] (H-QNG[pY]ENPT-OH)
Kd (Vav2-SH2 domain [1]; pH 7.4, 0.75 mM peptide titrated into 30 μM Vav2-SH2, single-site binding model): 860 nM

Grb2 SH2 (from UniProt P62993)
Kd [2]: 290 nM

QNGYENPT [APP-Y682]
binding in ITC (result in words) (Vav2-SH2 domain [1]; pH 7.4, 0.75 mM peptide titrated into 30 μM Vav2-SH2): no binding | chemical shift perturbations (CSPs) in 1H-15N HSQC of Vav2-SH2 (Vav2-SH2 domain [3]): did not induce any chemical shift perturbations

B1: GST-Vav2-SH2: wild-type GST-Vav2-SH2 protein (protein)
chain: SRPPSREIDYTAYPWFAGNMERQQTDNLLKSHASGTYLIRERPAEAERFAISIKFNDEVKHIKVVEKDNWIHITEAKKFDSLLELVEYYQCHSLKESFKQLDTTLKYPYKSRE
modifications: left off: GST, end not stated, kept
notes: wild-type GST-Vav2-SH2 protein
binding to full-length APPsw in GST pull-down (result in words) (full-length APPsw): bound selectively to full-length APPsw

B2: R680A mutant: R680A mutant of GST-Vav2-SH2 protein (negative control) (protein)
chain: SRPPSREIDYTAYPWFAGNMEAQQTDNLLKSHASGTYLIRERPAEAERFAISIKFNDEVKHIKVVEKDNWIHITEAKKFDSLLELVEYYQCHSLKESFKQLDTTLKYPYKSRE
modifications: left off: GST, end not stated, kept
binding to full-length APPsw in GST pull-down (result in words) (full-length APPsw): not GST alone or the R680A mutant bound selectively to full-length APPsw
